# Results from patent publication US11919901B2 (Syndax Pharmaceuticals, Inc., priority 2021, dated 2024).
# Tests used:
# hERG = hERG (Homo sapiens (Human), UniProt Q12809); experiment: Patch clamp assay (hERG tail currents, whole-cell); type: cell-based; conditions: hERG transfected HEK 293 cells; for hERG % Remaining 10 μM: 10 μM compound; for hERG % Remaining 30 μM: 30 μM compound
# Experimental: The 35 mm culture dishes upon which cells were seeded at a density allowing single cells to be recorded were placed on the dish holder of the microscope and continuously perfused (at approximately 1 mL/min) with the bath solution described in section 4.6. All solutions applied to cells including the pipette solution were maintained at room temperature (19° C. to 30° C.). After formation of a Gigaohm seal between the patch electrodes and individual hERG stably transfected HEK 293 cells (pipette resistance range: 2.0 MΩ2 to 7.0 MΩ; seal resistance range: >1GΩ) the cell membrane across the pipette tip was ruptured to assure electrical access to the cell interior (whole-cell patch-configuration). In case the quality of the seal was poor, the process of seal formation was repeated with a different cell and a new pipette. As soon as a stable seal could be established, hERG outward tail currents were measured upon depolarization of the cell membrane to +20 mV for 2s (activation of channels) from a holding potential of −80 mV and upon subsequent repolarization to −40 mV for 3 s. This voltage protocol (as shown below) was run at least 10 times at intervals of 10 s. If current density was judged to be too low for measurement, another cell was recorded.
# During wash-in of the test item the voltage protocol indicated above was run continuously again at 10 s intervals until the steady-state level of block was reached.
# The IC50 was determined by fitting the dose response curve with a 2-parameter logistic function (amax=100%).
# Menin-MLL = Menin-MLL (Homo sapiens (Human), UniProt O00255); experiment: Determination of binding constants (Ki) to Menin-MLL (HTRF); conditions: HTRF, 0.25 nM H-FL-Menin, 3.2 nM FITC-MLL-4-43, 24 hr incubation; for Ki: read-out: Menin-MLL Ki HTRF Assay: Ki
# Chain of Menin-MLL (O00255 whole entry): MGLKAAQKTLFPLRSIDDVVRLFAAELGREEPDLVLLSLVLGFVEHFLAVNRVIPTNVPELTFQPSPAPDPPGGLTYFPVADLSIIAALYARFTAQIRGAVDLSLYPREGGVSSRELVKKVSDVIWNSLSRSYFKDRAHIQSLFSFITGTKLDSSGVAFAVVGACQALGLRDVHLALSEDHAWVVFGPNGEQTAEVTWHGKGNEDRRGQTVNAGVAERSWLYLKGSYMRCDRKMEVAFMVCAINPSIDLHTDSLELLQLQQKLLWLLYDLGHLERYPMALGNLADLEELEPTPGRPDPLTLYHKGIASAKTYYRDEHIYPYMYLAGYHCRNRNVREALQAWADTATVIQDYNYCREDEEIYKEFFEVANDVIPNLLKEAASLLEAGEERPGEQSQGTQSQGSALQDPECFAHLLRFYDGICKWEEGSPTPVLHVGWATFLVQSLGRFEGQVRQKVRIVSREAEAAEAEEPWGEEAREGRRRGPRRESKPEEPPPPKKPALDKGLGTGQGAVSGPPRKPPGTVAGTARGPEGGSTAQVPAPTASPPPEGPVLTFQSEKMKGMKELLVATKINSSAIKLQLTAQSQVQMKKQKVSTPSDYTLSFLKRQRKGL
# Chain of hERG (Q12809 whole entry): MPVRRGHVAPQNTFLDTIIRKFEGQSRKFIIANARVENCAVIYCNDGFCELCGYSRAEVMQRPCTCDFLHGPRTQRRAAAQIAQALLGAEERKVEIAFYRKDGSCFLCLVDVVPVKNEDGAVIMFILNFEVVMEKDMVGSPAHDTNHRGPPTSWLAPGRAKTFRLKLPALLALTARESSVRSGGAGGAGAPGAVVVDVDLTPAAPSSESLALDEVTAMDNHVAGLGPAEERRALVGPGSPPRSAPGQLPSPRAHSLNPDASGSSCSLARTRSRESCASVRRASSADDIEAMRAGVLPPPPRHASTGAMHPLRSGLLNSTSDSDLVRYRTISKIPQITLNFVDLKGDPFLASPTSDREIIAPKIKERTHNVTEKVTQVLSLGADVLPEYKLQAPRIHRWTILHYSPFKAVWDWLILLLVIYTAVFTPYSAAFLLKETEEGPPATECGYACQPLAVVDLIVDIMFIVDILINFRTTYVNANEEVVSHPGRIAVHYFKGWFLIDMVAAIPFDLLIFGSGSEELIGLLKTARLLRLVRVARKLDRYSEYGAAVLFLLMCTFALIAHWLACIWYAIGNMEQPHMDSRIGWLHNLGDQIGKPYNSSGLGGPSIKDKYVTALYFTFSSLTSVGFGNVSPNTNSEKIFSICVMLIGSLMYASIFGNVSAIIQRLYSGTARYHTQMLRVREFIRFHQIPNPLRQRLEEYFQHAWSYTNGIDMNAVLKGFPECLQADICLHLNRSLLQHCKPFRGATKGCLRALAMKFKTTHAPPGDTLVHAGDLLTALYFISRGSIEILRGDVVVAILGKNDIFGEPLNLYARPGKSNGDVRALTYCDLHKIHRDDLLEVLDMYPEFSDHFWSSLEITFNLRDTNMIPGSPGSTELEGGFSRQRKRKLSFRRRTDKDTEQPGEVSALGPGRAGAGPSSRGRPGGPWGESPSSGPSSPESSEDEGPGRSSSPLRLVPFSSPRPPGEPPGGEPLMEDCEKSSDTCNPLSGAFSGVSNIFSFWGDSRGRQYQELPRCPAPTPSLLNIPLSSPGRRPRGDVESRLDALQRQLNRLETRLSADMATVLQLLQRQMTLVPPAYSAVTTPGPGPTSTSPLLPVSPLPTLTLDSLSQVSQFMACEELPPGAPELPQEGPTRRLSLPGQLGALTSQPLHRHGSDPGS
Structure (SMILES),hERG % Remaining 1 μM (hERG; 1 μM compound),hERG % Remaining 3 μM (hERG; 3 μM compound),hERG % Remaining 10 μM (hERG),hERG % Remaining 30 μM (hERG),hERG % Remaining 100 μM (hERG; 100 μM compound),IC50 (hERG) [nM],EC50 (Menin-MLL) [nM],Ki (Menin-MLL) [nM]
"CCS(=O)(=O)N[C@@H]1CC[C@@H](CN2CCC3(CC2)CN(c2ncncc2Oc2ccc(F)cc2C(=O)N(CC(F)F)C(C)C)C3)OC1 [Compound 34, N-(2,2-difluoroethyl)-2-((4-(7-(((2S,5R)-5-(ethylsulfonamido)tetrahydro-2H-pyran-2-yl)methyl)-2,7-diazaspiro[3.5]nonan-2-yl)pyrimidin-5-yl)oxy)-5-fluoro-N-isopropylbenzamide]",+++ (“+++” means ≥66%),+++ (“+++” means ≥66%),+++ (“+++” means ≥66%),++ (“++” means ≥33% and <66%),+ (“+” means <33%),25000 to 50000,< 50,< 1
"CCN(C(=O)c1cc(F)ccc1Oc1cncnc1N1CC2(CCN(C[C@@H]3CC[C@@H](NC(=O)NCC(F)(F)F)CO3)CC2)C1)C(C)C [Compound 37, N-ethyl-5-fluoro-N-isopropyl-2-((4-(7-(((2S,5R)-5-(3-(2,2,2-trifluoroethyl)ureido)tetrahydro-2H-pyran-2-yl)methyl)-2,7-diazaspiro[3.5]nonan-2-yl)pyrimidin-5-yl)oxy)benzamide]",–,–,+ (“+” means <33%),+ (“+” means <33%),–,–,< 50,< 1
"CCS(=O)(=O)N[C@@H]1CC[C@@H](CN2CCC3(CC2)CN(c2ncncc2Oc2ccc(F)cc2C(=O)N(CCC#N)C(C)C)C3)OC1 [Compound 43, N-(2-cyanoethyl)-2-((4-(7-(((2S,5R)-5-(ethylsulfonamido)tetrahydro-2H-pyran-2-yl)methyl)-2,7-diazaspiro[3.5]nonan-2-yl)pyrimidin-5-yl)oxy)-5-fluoro-N-isopropylbenzamide]",–,–,+++ (“+++” means ≥66%),++ (“++” means ≥33% and <66%),–,–,< 50,< 1
"CCS(=O)(=O)N[C@@H]1CC[C@@H](CN2CCC3(CC2)CN(c2ncncc2Oc2ccc(F)cc2C(=O)N(C(C)C)C2CC(F)(F)C2)C3)OC1 [Compound 44, N-(3,3-difluorocyclobutyl)-2-((4-(7-(((2S,5R)-5-(ethylsulfonamido)tetrahydro-2H-pyran-2-yl)methyl)-2,7-diazaspiro[3.5]nonan-2-yl)pyrimidin-5-yl)oxy)-5-fluoro-N-isopropylbenzamide]",–,–,+++ (“+++” means ≥66%),++ (“++” means ≥33% and <66%),–,–,< 50,< 1
"CCN(C(=O)c1cc(F)ccc1Oc1cncnc1N1CC2(CCN(C[C@@H]3CC[C@@H](NS(=O)(=O)c4ccccc4)CO3)CC2)C1)C(C)C [Compound 45, N-ethyl-5-fluoro-N-isopropyl-2-((4-(7-(((2S,5R)-5-(phenylsulfonamido)tetrahydro-2H-pyran-2-yl)methyl)-2,7-diazaspiro[3.5]nonan-2-yl)pyrimidin-5-yl)oxy)benzamide]",–,–,++ (“++” means ≥33% and <66%),+ (“+” means <33%),–,–,< 50,< 1
"CC(C)N(CC(F)F)C(=O)c1cc(F)ccc1Oc1cncnc1N1CC2(CCN(C[C@@H]3CC[C@@H](NS(=O)(=O)C4CC4)CO3)CC2)C1 [Compound 47, 2-((4-(7-(((2S,5R)-5-(cyclopropanesulfonamido)tetrahydro-2H-pyran-2-yl)methyl)-2,7-diazaspiro[3.5]nonan-2-yl)pyrimidin-5-yl)oxy)-N-(2,2-difluoroethyl)-5-fluoro-N-isopropylbenzamide]",–,–,+++ (“+++” means ≥66%),++ (“++” means ≥33% and <66%),–,–,< 50,< 1
"CCN(C(=O)c1cc(F)ccc1Oc1cncnc1N1CC2(CCN(C[C@@H]3CC[C@@H](NS(=O)(=O)N(C)C)CO3)CC2)C1)C(C)C [Compound 49, 2-((4-(7-(((2S,5R)-5-((N,N-dimethylsulfamoyl)amino)tetrahydro-2H-pyran-2-yl)methyl)-2,7-diazaspiro[3.5]nonan-2-yl)pyrimidin-5-yl)oxy)-N-ethyl-5-fluoro-N-isopropylbenzamide]",–,–,+++ (“+++” means ≥66%),+++ (“+++” means ≥66%),–,≥ 50000,< 50,< 1
"CCN(C(=O)c1cc(F)ccc1Oc1cncnc1N1CC2(CCN(C[C@@H]3CC[C@@H](NS(=O)(=O)c4ccccn4)CO3)CC2)C1)C(C)C [Compound 58, N-ethyl-5-fluoro-N-isopropyl-2-((4-(7-(((2S,5R)-5-(pyridine-2-sulfonamido)tetrahydro-2H-pyran-2-yl)methyl)-2,7-diazaspiro[3.5]nonan-2-yl)pyrimidin-5-yl)oxy)benzamide]",–,–,+++ (“+++” means ≥66%),++ (“++” means ≥33% and <66%),–,–,< 50,< 1
"CCN(C(=O)c1cc(F)ccc1Oc1cncnc1N1CC2(CCN(C[C@@H]3CC[C@@H](NS(=O)(=O)c4ccccc4Cl)CO3)CC2)C1)C(C)C [Compound 59, 2-((4-(7-(((2S,5R)-5-((2-Chlorophenyl)sulfonamido)tetrahydro-2H-pyran-2-yl)methyl)-2,7-diazaspiro[3.5]nonan-2-yl)pyrimidin-5-yl)oxy)-N-ethyl-5-fluoro-N-isopropylbenzamide]",–,–,+ (“+” means <33%),+ (“+” means <33%),–,–,< 50,< 1
"CCN(C(=O)c1cc(F)ccc1Oc1cncnc1N1CC2(CCN(C[C@@H]3CC[C@@H](NS(=O)(=O)c4ccc(OC)cc4)CO3)CC2)C1)C(C)C [Compound 62, N-Ethyl-5-fluoro-N-isopropyl-2-((4-(7-(((2S,5R)-5-((4-methoxyphenyl)sulfonamido)tetrahydro-2H-pyran-2-yl)methyl)-2,7-diazaspiro[3.5]nonan-2-yl)pyrimidin-5-yl)oxy)benzamide]",–,–,+ (“+” means <33%),+ (“+” means <33%),–,–,< 50,< 1
"CCN(C(=O)c1cc(F)ccc1Oc1cncnc1N1CC2(CCN(C[C@@H]3CC[C@@H](NS(=O)(=O)c4cccnc4)CO3)CC2)C1)C(C)C [Compound 63, N-Ethyl-5-fluoro-N-isopropyl-2-((4-(7-(((2S,5R)-5-(pyridine-3-sulfonamido)tetrahydro-2H-pyran-2-yl)methyl)-2,7-diazaspiro[3.5]nonan-2-yl)pyrimidin-5-yl)oxy)benzamide]",–,–,+++ (“+++” means ≥66%),++ (“++” means ≥33% and <66%),–,–,< 50,< 1
"CCN(C(=O)c1cc(F)ccc1Oc1cncnc1N1CC2(CCN(C[C@@H]3CC[C@@H](NS(=O)(=O)N4CCOCC4)CO3)CC2)C1)C(C)C [Compound 64, N-Ethyl-5-fluoro-N-isopropyl-2-((4-(7-(((2S,5R)-5-(morpholine-4-sulfonamido)tetrahydro-2H-pyran-2-yl)methyl)-2,7-diazaspiro[3.5]nonan-2-yl)pyrimidin-5-yl)oxy)benzamide]",–,–,+++ (“+++” means ≥66%),++ (“++” means ≥33% and <66%),–,–,< 50,< 1
"CCN(C(=O)c1cc(F)ccc1Oc1cncnc1N1CC2(CCN(C[C@@H]3CC[C@@H](NS(=O)(=O)c4ccccc4OC)CO3)CC2)C1)C(C)C [Compound 65, N-Ethyl-5-fluoro-N-isopropyl-2-((4-(7-(((2S,5R)-5-((2-methoxyphenyl)sulfonamido)tetrahydro-2H-pyran-2-yl)methyl)-2,7-diazaspiro[3.5]nonan-2-yl)pyrimidin-5-yl)oxy)benzamide]",–,–,++ (“++” means ≥33% and <66%),+ (“+” means <33%),–,–,< 50,< 1
"CCN(C(=O)c1cc(F)ccc1Oc1cncnc1N1CC2(CCN(C[C@@H]3CC[C@@H](NS(=O)(=O)c4cccc(OC)c4)CO3)CC2)C1)C(C)C [Compound 66, N-Ethyl-5-fluoro-N-isopropyl-2-((4-(7-(((2S,5R)-5-((3-methoxyphenyl)sulfonamido)tetrahydro-2H-pyran-2-yl)methyl)-2,7-diazaspiro[3.5]nonan-2-yl)pyrimidin-5-yl)oxy)benzamide]",–,–,+ (“+” means <33%),+ (“+” means <33%),–,–,< 50,< 1
"CCN(C(=O)c1cc(F)ccc1Oc1cncnc1N1CC2(CCN(C[C@@H]3CC[C@@H](NS(=O)(=O)c4cnn(C)c4)CO3)CC2)C1)C(C)C [Compound 68, N-Ethyl-5-fluoro-N-isopropyl-2-((4-(7-(((2S,5R)-5-((1-methyl-1H-pyrazole)-4-sulfonamido)tetrahydro-2H-pyran-2-yl)methyl)-2,7-diazaspiro[3.5]nonan-2-yl)pyrimidin-5-yl)oxy)benzamide]",–,–,+++ (“+++” means ≥66%),+++ (“+++” means ≥66%),–,≥ 50000,< 50,< 1
"CCN(C(=O)c1cc(F)ccc1Oc1cncnc1N1CC2(CCN(C[C@@H]3CC[C@@H](NS(=O)(=O)N4CCC4)CO3)CC2)C1)C(C)C [Compound 69, 2-((4-(7-(((2S,5R)-5-(Azetidine-1-sulfonamido)tetrahydro-2H-pyran-2-yl)methyl)-2,7-diazaspiro[3.5]nonan-2-yl)pyrimidin-5-yl)oxy)-N-ethyl-5-fluoro-N-isopropylbenzamide]",–,–,+++ (“+++” means ≥66%),++ (“++” means ≥33% and <66%),–,25000 to 50000,< 50,< 1
